Results: US20240269350A1, “I[…] FOR TREATING CENTRAL NERVOUS SYSTEM DISORDERS” (priority 2021, published 2024)
Like-named read-outs stand apart in the source and are kept apart here.

Legend:
[1] = approved oral, patch or i.v. administration; cited from earlier work
[2] = tartrate salt form; cited from earlier work
[3] = oral administration, cited from earlier work; for AUC1-12h cerebral spinal fluid (CSF)/plasma ratio: mean
[4] = Oral rivastigmine pharmacokinetics and estimated delivery to CSF (Exelon label); format: in vivo; settings: for daily dose delivered to CSF: plasma volume 2750 mL, CSF volume 150 mL
Protocol: Drug coating and formulation development. The absolute bioavailability of oral rivastigmine is approximately 40%, and the AUC1-12h cerebral spinal fluid (CSF)/plasma ratio is about 40% (Novartis Exelon® Capsules and Oral Solution Prescribing Information). An estimated 0.87% of the rivastigmine oral dose is absorbed and distributed into the CSF. Thus, the daily CSF uptake of this drug is estimated to be between 26-105 μg. As a starting point for the formulation development, we will first target to formulate a matrix loaded with rivastigmine which will be released over 30 days in a near linear manner. Bilateral administration of the rivastigmine matrix would result in approximately 21-107 μg rivastigmine delivered to CSF/day, assuming a CSF bioavailability between 10-50%.
For oral administration, delivery, an absolute bioavailability of Rivastigmine is about 40% and a mean AUC (area under the curve) 1-12 hr CSF/Plasma is about 40% (Exelon Label). The daily doses delivered to CSF are 26 μg/day, 52 μg/day, 79 μg/day, and 105 μg/day for the oral doses, equating to 1.5 mg BID, 3 mg BID, 4.5 mg BID, and 6 mg BID, respectively. For this estimation, a plasma volume of 2750 mL and a CSF volume of 150 mL are used.

In the case of `CC12CC3CC(C)(C1)CC(N)(C3)C2` [Memantine], the Side effects [1] is given as “Headache, constipation,”.

In the case of `CCN(C)C(=O)Oc1cccc([C@H](C)N(C)C)c1` [Rivastigmine], the water solubility [2] is listed as “highly water-soluble”, the “AUC1-12h cerebral spinal fluid (CSF)/plasma ratio” value [3] is listed as “about 40%” and the “AUC1-12h cerebral spinal fluid (CSF)/plasma ratio” value ([3]; listed as rivastigmine) is listed as “approximately 40%”. For the same compound, the absolute bioavailability [3] was “about 40%”, the absolute bioavailability ([3]; listed as rivastigmine) was “approximately 40%” and the “daily dose delivered to CSF” value ([4]; oral 1.5 mg BID) was 26 µg/day. For the same compound, the “daily dose delivered to CSF” value ([4]; oral 3 mg BID) was 52 µg/day, the “daily dose delivered to CSF” value ([4]; oral 4.5 mg BID) was 79 µg/day and the “daily dose delivered to CSF” value ([4]; oral 6 mg BID) was 105 µg/day. For the same compound, the “fraction of oral dose absorbed and distributed into the CSF” value ([4]; oral dose, estimated) was 0.87% and the “daily CSF uptake” value ([4]; oral dosing, estimated) was 26 to 105 µg.
